Article PMC9157009, “Protein proximity networks and functional evaluation of the casein kinase 1 gamma family reveal unique roles for CK1γ3 in WNT signaling” (The Journal of Biological Chemistry, 2022)
Several values for one entry are separate records, joined by “and”; a condition that tells them apart may be missing. Equal entries are not always repeated.

What was measured:
CK1γ2 = target: T1, CK1γ2 (Homo sapiens, UniProt P78368); test: Eurofins kinase enzymatic radiometric assay, CK1γ2; assay type: biochemical; settings: Km = ATP, 9-pt curve in duplicate
T1 construct: purchased Eurofins
T1 sequence (P78368 whole entry): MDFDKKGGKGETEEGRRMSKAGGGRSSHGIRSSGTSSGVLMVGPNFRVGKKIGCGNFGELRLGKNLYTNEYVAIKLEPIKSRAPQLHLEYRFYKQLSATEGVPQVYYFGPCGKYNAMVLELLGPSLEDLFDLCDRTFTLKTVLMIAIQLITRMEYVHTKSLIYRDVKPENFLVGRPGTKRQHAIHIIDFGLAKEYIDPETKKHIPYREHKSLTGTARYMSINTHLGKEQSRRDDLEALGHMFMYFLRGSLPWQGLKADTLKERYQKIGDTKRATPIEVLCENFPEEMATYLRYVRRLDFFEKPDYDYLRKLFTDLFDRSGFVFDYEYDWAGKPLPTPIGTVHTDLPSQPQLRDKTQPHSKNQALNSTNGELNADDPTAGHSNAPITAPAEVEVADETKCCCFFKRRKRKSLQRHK
Text: (§1) Details related to the substrate used, protein constructs, controls, and assay protocol for each kinase assay are included on the Eurofins website: https://www.eurofinsdiscoveryservices.com/.

LRP6 = test: W. blot of LRP6 phosphorylation after WNT3A in RKO cells; assay type: cell-based, human; settings: RKO cells pretreated 1 h
Experimental: (§2) Standard W. blot techniques were utilized and performed as previously described ([15], [43]). Briefly, cells were lysed in RIPA lysis buffer, flash frozen on dry ice, and then cleared at high speed for 10 min at maximum speed. Protein concentration was determined by a bicinchoninic acid assay following kit specifications. Samples were balanced, and NuPAGE 4× SDS loading buffer (Thermo Fisher Scientific; catalog no.: NP0007) containing DTT was added to each sample and heated for 10 min at 70 °C. Samples were run on a NuPAGE 4 to 12% Bis–Tris Protein Gel (Thermo Fisher Scientific; catalog no.: NP0321) and then transferred to a nitrocellulose membrane. The membrane was then blocked and incubated overnight with primary antibody at 4 °C with rotation, washed with Tris-buffered saline with Tween-20, incubated with secondary antibody, washed with Tris-buffered saline with Tween-20, and imaged. Images were taken using a LiCOR Odyssey CLx imager and quantified with LiCOR software (LiCOR Biosciences). All antibodies were used at a concentration of 1:1000, with the exception of loading controls, which were used at 1:10,000. […]

β-catenin = test: W. blot of β-catenin stabilization after WNT3A in RKO cells; assay type: cell-based, human; settings: RKO cells pretreated 1 h, WNT3A 30 or 60 min, compared with dimethyl sulfoxide control
Experimental: as §2

CK1γ3 = target: T2, CK1γ3 (Homo sapiens, UniProt Q9Y6M4); test: Eurofins kinase enzymatic radiometric assay, CK1γ3; assay type: biochemical; settings: Km = ATP, 9-pt curve in duplicate
T2 construct: purchased Eurofins
T2 sequence (Q9Y6M4 whole entry): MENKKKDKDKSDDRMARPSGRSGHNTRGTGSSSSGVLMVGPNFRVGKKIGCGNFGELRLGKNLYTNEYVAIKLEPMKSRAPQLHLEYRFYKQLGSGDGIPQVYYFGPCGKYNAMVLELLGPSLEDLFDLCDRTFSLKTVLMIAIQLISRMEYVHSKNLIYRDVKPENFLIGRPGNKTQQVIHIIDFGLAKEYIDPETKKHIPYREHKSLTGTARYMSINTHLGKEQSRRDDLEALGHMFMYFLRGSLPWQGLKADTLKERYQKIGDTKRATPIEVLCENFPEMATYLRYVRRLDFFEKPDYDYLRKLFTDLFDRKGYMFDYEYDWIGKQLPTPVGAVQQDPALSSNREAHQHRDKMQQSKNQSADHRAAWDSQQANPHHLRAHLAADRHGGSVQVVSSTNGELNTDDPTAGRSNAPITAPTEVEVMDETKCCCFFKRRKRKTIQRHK
Text: as §1

DYRK1B = target: T3, DYRK1B (Homo sapiens, UniProt Q9Y463); test: scanMAX binding assay, DYRK1B; settings: Percent of Control; legend and method: 1 μM; read-out: DYRK1B PoC @ 1 µM
T3 construct: purchased Eurofins DiscoverX Corporation
T3 sequence (Q9Y463 whole entry): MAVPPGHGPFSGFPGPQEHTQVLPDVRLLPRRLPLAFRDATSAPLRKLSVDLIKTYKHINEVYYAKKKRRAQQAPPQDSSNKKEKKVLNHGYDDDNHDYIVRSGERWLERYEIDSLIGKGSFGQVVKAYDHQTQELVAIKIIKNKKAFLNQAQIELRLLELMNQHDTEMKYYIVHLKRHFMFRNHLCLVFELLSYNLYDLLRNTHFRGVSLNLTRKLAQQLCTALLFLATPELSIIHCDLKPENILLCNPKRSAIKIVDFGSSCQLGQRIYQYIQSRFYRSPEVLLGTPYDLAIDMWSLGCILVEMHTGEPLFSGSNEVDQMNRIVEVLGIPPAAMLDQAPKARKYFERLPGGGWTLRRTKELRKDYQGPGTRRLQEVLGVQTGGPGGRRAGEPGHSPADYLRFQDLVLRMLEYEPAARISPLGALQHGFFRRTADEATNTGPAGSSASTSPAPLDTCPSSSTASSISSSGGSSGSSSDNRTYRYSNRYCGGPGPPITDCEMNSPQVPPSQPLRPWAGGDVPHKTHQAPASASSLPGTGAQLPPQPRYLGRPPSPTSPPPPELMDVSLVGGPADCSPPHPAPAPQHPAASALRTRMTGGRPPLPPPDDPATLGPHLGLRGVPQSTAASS
Text: (§3) As described previously, this commercial assay platform screens against 403 WT human kinases in binding assays and provides PoC values ([73]).

GSK3β (NLuc-GSK3β) = target: T4, GSK3β (NLuc-GSK3β) (Homo sapiens, UniProt P49841); test: NanoBRET cellular target engagement assay, NLuc-GSK3β in HEK293T cells; assay type: cell-based; settings: live HEK293T cells, 0.063 μM tracer K-8; read-out: GSK3β NanoBRET assay, inactive up to
T4 construct: host or cells: HEK293T
T4 sequence (P49841 whole entry): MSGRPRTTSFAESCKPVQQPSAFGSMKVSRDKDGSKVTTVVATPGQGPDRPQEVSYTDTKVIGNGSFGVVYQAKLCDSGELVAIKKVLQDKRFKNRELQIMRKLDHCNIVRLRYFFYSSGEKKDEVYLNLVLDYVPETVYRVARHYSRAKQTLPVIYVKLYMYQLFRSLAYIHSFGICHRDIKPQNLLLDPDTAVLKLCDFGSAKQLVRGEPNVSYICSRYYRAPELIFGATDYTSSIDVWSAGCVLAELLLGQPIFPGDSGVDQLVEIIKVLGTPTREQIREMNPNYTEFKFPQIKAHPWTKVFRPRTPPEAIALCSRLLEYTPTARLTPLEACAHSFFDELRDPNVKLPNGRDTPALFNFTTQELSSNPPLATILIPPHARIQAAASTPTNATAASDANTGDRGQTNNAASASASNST
Experimental: HEK293T cells (hypotriploid, fetal) were purchased from ATCC. These cells were grown in Dulbecco’s modified Eagle’s medium (Gibco) supplemented with 10% (v/v) fetal bovine serum (Corning). They were incubated in 5% CO2 at 37 °C and passaged every 72 h with trypsin and not allowed to reach confluency. Constructs for NanoBRET measurements of CK1γ2 (NLuc-CK1γ2) and GSK3β (NLuc-GSK3β) were kindly provided by Promega. NanoBRET assays were carried out as described previously ([74]). Preferred NLuc orientations, both N-terminal in this case, are indicated in parentheses after each construct. Assays were carried out in dose–response as described by the manufacturer using 0.5 μM of tracer K-10 for CK1γ2 and 0.063 μM of tracer K-8 for GSK3β. Two biological replicates were executed with two technical replicates to produce the graphs with error bars shown in Figures 6E, 7E, 8, A and B. Tracer titration curves for these kinases that motivated our tracer selection and working concentration can be found on the Promega website.

CSNK1E = target: T5, CSNK1E (Homo sapiens, UniProt P49674); test: scanMAX binding assay, CSNK1E; settings: Percent of Control; legend and method: 1 μM; read-out: CSNK1E PoC @ 1 µM
T5 construct: purchased Eurofins DiscoverX Corporation
T5 sequence (P49674 whole entry): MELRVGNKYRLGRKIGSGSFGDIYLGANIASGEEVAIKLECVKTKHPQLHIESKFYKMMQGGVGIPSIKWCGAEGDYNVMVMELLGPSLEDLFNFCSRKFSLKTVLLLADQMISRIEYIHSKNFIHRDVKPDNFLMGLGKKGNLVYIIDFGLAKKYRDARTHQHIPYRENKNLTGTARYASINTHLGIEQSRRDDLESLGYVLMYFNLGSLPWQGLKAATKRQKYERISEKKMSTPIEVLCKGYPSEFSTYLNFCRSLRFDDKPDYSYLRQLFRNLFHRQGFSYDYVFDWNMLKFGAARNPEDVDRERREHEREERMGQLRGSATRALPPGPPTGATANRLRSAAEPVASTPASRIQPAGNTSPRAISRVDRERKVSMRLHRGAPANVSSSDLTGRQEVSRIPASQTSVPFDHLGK
Text: as §3

CSNK1D = CSNK1D (Homo sapiens, UniProt P48730); test: scanMAX binding assay, CSNK1D; settings: Percent of Control; legend and method: 1 μM; read-out: CSNK1D PoC @ 1 µM
CSNK1D, sequence (P48730 whole entry): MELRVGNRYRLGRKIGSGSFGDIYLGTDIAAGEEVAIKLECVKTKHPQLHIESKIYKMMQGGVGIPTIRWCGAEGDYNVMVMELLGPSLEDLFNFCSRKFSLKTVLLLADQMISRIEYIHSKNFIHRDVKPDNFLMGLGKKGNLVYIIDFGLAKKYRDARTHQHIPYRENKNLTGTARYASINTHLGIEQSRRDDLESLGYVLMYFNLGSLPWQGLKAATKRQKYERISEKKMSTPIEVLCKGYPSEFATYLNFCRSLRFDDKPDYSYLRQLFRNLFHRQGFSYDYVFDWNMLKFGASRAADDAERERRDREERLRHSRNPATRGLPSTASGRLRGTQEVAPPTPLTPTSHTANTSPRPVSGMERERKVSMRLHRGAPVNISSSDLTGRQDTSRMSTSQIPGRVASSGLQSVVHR
Text: as §3

## COc1cnc(COc2ccc(F)c(F)c2)cc1-c1cc2c([nH]1)CCNC2=O [FP1-24-2, 2-(2-((3,4-difluorophenoxy)methyl)-5-methoxypyridin-4-yl)-1,5,6,7-tetrahydro-4H-pyrrolo[3,2-c]pyridin-4-one]
CK1γ2
  IC50: < 15 nM and 2.22 nM
LRP6; WNT3A 30 or 60 min, compared with dimethyl sulfoxide control
  phosphorylation of LRP6 at site S1490: diminished
LRP6; then exposed to WNT3A 30 or 60 min
  LRP6 phosphorylation at T1479: did not increase
β-catenin
  β-catenin stabilization: diminished
CK1γ3
  IC50: < 15 nM and 14 nM
DYRK1B
  remaining binding at 1 µM: 7.1%
GSK3β (NLuc-GSK3β)
  IC50: > 10000 nM
CSNK1E
  remaining binding at 1 µM: 0.3%
CSNK1D
  remaining binding at 1 µM: 0%
